Reference: US9884832B2 (priority 2011, dated 2018)

Target: AM2 S31 (wild-type serine at position 31 in the M2 protein), influenza virus A/Udorn/72 (Influenza A virus, UniProt P0DOF5)
Experiment: cell-based
Conditions: 100 uM; Xenopus oocytes; activity range class; read-out: S31 OOcyte Inhibition at 100 uM (%)

AM2 S31 (wild-type serine at position 31 in the M2 protein), influenza virus A/Udorn/72, sequence (P0DOF5 whole entry, looked up): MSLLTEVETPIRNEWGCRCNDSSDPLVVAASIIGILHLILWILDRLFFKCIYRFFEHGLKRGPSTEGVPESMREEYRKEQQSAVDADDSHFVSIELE

| Structure (SMILES) | inhibition at 100 µM [%] |
| --- | --- |
| Fc1ccc(-c2cc(CNC34CC5CC(CC(C5)C3)C4)no2)cc1 [Example 118a, N-((5-(4-fluorophenyl)isoxazol-3-yl)methyl)adamantan-1-amine] | 0 to 30 |
| Clc1ccc(-c2cc(CNC34CC5CC(CC(C5)C3)C4)no2)cc1 [Example 119a, N-((5-(4-chlorophenyl)isoxazol-3-yl)methyl)adamantan-1-amine] | 0 to 30 |
| Cc1ccc(-c2cc(CNC34CC5CC(CC(C5)C3)C4)no2)cc1 [Example 120a, N-((5-(p-tolyl)isoxazol-3-yl)methyl)adamantan-1-amine] | 0 to 30 |
| Brc1ccc(-c2cc(CNC34CC5CC(CC(C5)C3)C4)no2)cc1 [Example 121a, N-((5-(4-bromophenyl)isoxazol-3-yl)methyl)adamantan-1-amine] | 0 to 30 |
| COc1ccc(-c2cc(CNC34CC5CC(CC(C5)C3)C4)on2)cc1 [Example 122a, N-((3-(4-methoxyphenyl)isoxazol-5-yl)methyl)adamantan-1-amine] | 0 to 30 |
| c1ccc(-c2noc(CNC34CC5CC(CC(C5)C3)C4)n2)cc1 [Example 123a, N-((3-phenyl-1,2,4-oxadiazol-5-yl)methyl)adamantan-1-amine] | 0 to 30 |
| CC(C)(C)c1ccc(-c2noc(CNC34CC5CC(CC(C5)C3)C4)n2)cc1 [Example 124a, N-((3-(4-(tert-butyl)phenyl)-1,2,4-oxadiazol-5-yl)methyl)adamantan-1-amine] | 0 to 30 |
| FC(F)(F)c1cccc(-c2nc(CNC34CC5CC(CC(C5)C3)C4)no2)c1 [Example 125a, N-((5-(3-(trifluoromethyl)phenyl)-1,2,4-oxadiazol-3-yl)methyl)adamantan-1-amine] | 0 to 30 |
| COc1ccc(-c2nc(CNC34CC5CC(CC(C5)C3)C4)no2)cc1 [Example 126a, N-((5-(4-methoxyphenyl)-1,2,4-oxadiazol-3-yl)methyl)adamantan-1-amine] | 0 to 30 |
| COc1ccc(-c2nnc(CNC34CC5CC(CC(C5)C3)C4)o2)cc1 [Example 127a, N-((5-(4-methoxyphenyl)-1,3,4-oxadiazol-2-yl)methyl)adamantan-1-amine] | 0 to 30 |
| Cc1ccc(-c2nc(CNC34CC5CC(CC(C5)C3)C4)no2)cc1 [Example 128a, N-((5-(p-tolyl)-1,2,4-oxadiazol-3-yl)methyl)adamantan-1-amine] | 0 to 30 |
| FC(F)(F)c1ccc(-c2nc(CNC34CC5CC(CC(C5)C3)C4)no2)cc1 [Example 129a, N-((5-(4-(trifluoromethyl)phenyl)-1,2,4-oxadiazol-3-yl)methyl)adamantan-1-amine] | 0 to 30 |
| c1ccc(-c2nc(CNC34CC5CC(CC(C5)C3)C4)no2)cc1 [Example 131a, N-((5-phenyl-1,2,4-oxadiazol-3-yl)methyl)adamantan-1-amine] | 0 to 30 |
| c1ccc(-c2nc(CNC34CC5CC(CC(C5)C3)C4)cs2)cc1 [Example 132a, N-((2-phenylthiazol-4-yl)methyl)adamantan-1-amine] | 0 to 30 |
| c1cncc(-c2noc(CNC34CC5CC(CC(C5)C3)C4)n2)c1 [Example 135a, Adamantan-1-yl-(3-pyridin-3-yl-[1,2,4]oxadiazol-5-ylmethyl)-amine] | 0 to 30 |
| c1coc(-c2ccc(CNC34CC5CC(CC(C5)C3)C4)s2)c1 [Example 136a, N-((5-(Furan-2-yl)thiophen-2-yl)methyl)adamantan-1-amine] | 0 to 30 |
| c1cc(-c2ccc(CNC34CC5CC(CC(C5)C3)C4)s2)co1 [Example 137a, N-((5-(Furan-3-yl)thiophen-2-yl)methyl)adamantan-1-amine] | 0 to 30 |
| c1csc(-c2ccc(CNC34CC5CC(CC(C5)C3)C4)o2)c1 [Example 138a, Adamantan-1-yl-(5-thiophen-2-yl-furan-2-ylmethyl)-amine] | 0 to 30 |
| c1csc(-c2csc(CNC34CC5CC(CC(C5)C3)C4)c2)c1 [Example 140a, Adamantan-1-yl-[2,3′]bithiophenyl-5′-ylmethyl-amine] | 0 to 30 |
| Cc1ccc(-c2ccc(CNC34CC5CC(CC(C5)C3)C4)s2)s1 [Example 141a, N-((5′-methyl-[2,2′-bithiophen]-5-yl)methyl)adamantan-1-amine] | 0 to 30 |
| c1csc(-c2cc(CNC34CC5CC(CC(C5)C3)C4)no2)c1 [Example 142a, N-((5-(thiophen-2-yl)isoxazol-3-yl)methyl)adamantan-1-amine] | 0 to 30 |
| c1cc(-c2nc(CNC34CC5CC(CC(C5)C3)C4)no2)cs1 [Example 143a, N-((5-(thiophen-3-yl)-1,2,4-oxadiazol-3-yl)methyl)adamantan-1-amine] | 0 to 30 |
| c1csc(-c2ncc(CNC34CC5CC(CC(C5)C3)C4)s2)c1 [Example 144a, N-((2-(thiophen-2-yl)thiazol-5-yl)methyl)adamantan-1-amine] | 0 to 30 |
| Cc1oc(-c2cccs2)nc1CNC12CC3CC(CC(C3)C1)C2 [Example 145a, N-((5-methyl-2-(thiophen-2-yl)oxazol-4-yl)methyl)adamantan-1-amine] | 0 to 30 |
| c1csc(-c2nc(CNC34CC5CC(CC(C5)C3)C4)no2)c1 [Example 146a, N-((5-(thiophen-2-yl)-1,2,4-oxadiazol-3-yl)methyl)adamantan-1-amine] | 0 to 30 |

| Structure (SMILES) | inhibition at 100 µM [%] |
| --- | --- |
| c1csc(-c2nnc(CNC34CC5CC(CC(C5)C3)C4)o2)c1 [Example 147a, Adamantan-1-yl-(5-thiophen-2-yl-[1,3,4]oxadiazol-2-ylmethyl)-amine] | 0 to 30 |
| c1csc(-c2noc(CNC34CC5CC(CC(C5)C3)C4)n2)c1 [Example 148a, N-((3-(thiophen-2-yl)-1,2,4-oxadiazol-5-yl)methyl)adamantan-1-amine] | 0 to 30 |
| c1csc(-c2cc(CNC34CC5CC(CC(C5)C3)C4)on2)c1 [Example 149a, N-((3-(thiophen-2-yl)isoxazol-5-yl)methyl)adamantan-1-amine] | 0 to 30 |
| c1cc(-c2cc(CNC34CC5CC(CC(C5)C3)C4)no2)cs1 [Example 150a, Adamantan-1-yl-(5-thiophen-3-yl-isoxazol-3-ylmethyl)-amine] | 0 to 30 |
| c1csc(-c2nnc(CNC34CC5CC(CC(C5)C3)C4)s2)c1 [Example 151a, N-((5-(thiophen-2-yl)-1,3,4-thiadiazol-2-yl)methyl)adamantan-1-amine] | 0 to 30 |
| c1cc(-c2csc(CNC34CC5CC(CC(C5)C3)C4)c2)cs1 [Example 152a, N-([3,3′-bithiophen]-5-ylmethyl)adamantan-1-amine] | 0 to 30 |
| c1coc(-c2cc(CNC34CC5CC(CC(C5)C3)C4)no2)c1 [Example 153a, N-((5-(furan-2-yl)isoxazol-3-yl)methyl)adamantan-1-amine] | 0 to 30 |
| Cc1ncc(-c2ccc(CNC34CC5CC(CC(C5)C3)C4)s2)s1 [Example 154a, N-((5-(2-methylthiazol-5-yl)thiophen-2-yl)methyl)adamantan-1-amine] | 0 to 30 |
| Cn1cc(C(F)(F)F)c(-c2ccc(CNC34CC5CC(CC(C5)C3)C4)s2)n1 [Example 155a, N-((5-(1-methyl-4-(trifluoromethyl)-1H-pyrazol-3-yl)thiophen-2-yl)methyl)adamantan-1-amine] | 0 to 30 |
| Cc1nc(-c2ccc(CNC34CC5CC(CC(C5)C3)C4)s2)cs1 [Example 156a, N-((5-(2-methylthiazol-4-yl)thiophen-2-yl)methyl)adamantan-1-amine] | 0 to 30 |
| c1csc(-c2ccc(-c3ccc(CNC45CC6CC(CC(C6)C4)C5)s3)s2)c1 [Example 157a, N-([2,2′:5′,2″-terthiophen]-5-ylmethyl)adamantan-1-amine] | 0 to 30 |
| c1cc(-c2ccc(CNC34CC5CC(CC(C5)C3)C4)s2)[nH]n1 [Example 158a, N-((5-(1H-pyrazol-5-yl)thiophen-2-yl)methyl)adamantan-1-amine] | 0 to 30 |
| Brc1ccc(-c2ccc(CNC34CC5CC(CC(C5)C3)C4)s2)s1 [Example 159a, N-((5′-bromo-[2,2′-bithiophen]-5-yl)methyl)adamantan-1-amine] | 0 to 30 |
| c1coc(-c2nc(CNC34CC5CC(CC(C5)C3)C4)no2)c1 [Example 160a, N-((5-(furan-2-yl)-1,2,4-oxadiazol-3-yl)methyl)adamantan-1-amine] | 0 to 30 |
| c1cn(-c2ccc(CNC34CC5CC(CC(C5)C3)C4)s2)cn1 [Example 161a, N-((5-(1H-imidazol-1-yl)thiophen-2-yl)methyl)adamantan-1-amine] | 0 to 30 |
| c1cc(-c2ccc(CNC34CC5CC(CC(C5)C3)C4)o2)[nH]n1 [Example 162a, N-((5-(1H-pyrazol-5-yl)furan-2-yl)methyl)adamantan-1-amine] | 0 to 30 |
| Fc1ccc(-c2nc(CNC34CC5CC(CC(C5)C3)C4)no2)cc1 [Example 163a] | 0 to 30 |
| c1ccc(-c2cc(CNC34CC5CC(CC(C5)C3)C4)on2)cc1 [Example 164a] | 0 to 30 |
| CCc1nc(CNC23CC4CC(CC(C4)C2)C3)no1 [Example 165a] | 31 to 95 |
| C(NC12CC3CC(CC(C3)C1)C2)c1noc(C2CC2)n1 [Example 166a] | 0 to 30 |
| c1ccc(C2=NOC(CNC34CC5CC(CC(C5)C3)C4)C2)cc1 (stereo not shown) [Example 167a, N-((3-phenyl-4,5-dihydroisoxazol-5-yl)methyl)adamantan-1-amine] | 0 to 30 |
| c1csc(C2=NOC(CNC34CC5CC(CC(C5)C3)C4)C2)c1 (stereo not shown) [Example 168a, N-((3-(thiophen-2-yl)-4,5-dihydroisoxazol-5-yl)methyl)adamantan-1-amine] | 0 to 30 |
| O=c1[nH]cc(CNC23CC4CC(CC(C4)C2)C3)c(=O)[nH]1 [Example 169a, 5-((adamantan-1-ylamino)methyl)pyrimidine-2,4(1H,3H)-dione] | 0 to 30 |
| OC1CCC(CNC23CC4CC(CC(C4)C2)C3)CC1 (stereo not shown) [Example 170a, 4-(Adamantan-1-ylaminomethyl)-cyclohexanol] | 0 to 30 |
